Columns and labels:
[1] = Cytotoxicity in Ramos cells; format: cell-based; conditions: human, Ramos cells; mean of thirteen independent experiments; compound dissolved in dimethylsulfoxide; read-out: mean EC50 for cytotoxicity towards Ramos cells
Method: (§1) Compounds in Table 5 below were tested for activity against F1F0-ATPase by measuring the ability of the compounds to inhibit ATP synthesis. In addition, the compounds were assessed for cytotoxicity in Ramos cells. Inhibition of F1F0-ATPase activity in synthesizing ATP and cytotoxicity in Ramos cells were measured according to the procedures described in K. M. Johnson et al. Chemistry & Biology 2005, 12, 485-496.
(§2) The activity of compound 3-chloro-N-(((3-chloro-5-fluorophenyl)amino)((5-(trifluoromethyl)-1H-pyrazol-3-yl)amino)methylene)benzamide towards F1F0-ATPase and Ramos cells was evaluated by performing multiple times the assay procedures described in Part I. In particular, activity against F1F0-ATPase was evaluated by measuring the ability of the compound to inhibit ATP synthesis in twelve independent experiments. Cytotoxicity towards Ramos cells was measured in thirteen independent experiments. Consistent with the procedure in Part I, the compound was dissolved in dimethylsulfoxide to form a solution that was applied to F1F0-ATPase or Ramos cells, and the assays were performed according to procedures described in K. M. Johnson et al. Chemistry & Biology 2005, 12, 485-496.
(§3) Similarly, EC50 values (for cytotoxicity towards Ramos cells) from multiple replications of the experimental procedure were averaged. The mean EC50 value for 3-chloro-N-(((3-chloro-5-fluorophenyl)amino)((5-(trifluoromethyl)-1H-pyrazol-3-yl)amino)methylene)benzamide for cytotoxicity towards Ramos cells was determined to be 59±6 nM.

Ramos cells = assay: Cytotoxicity in Ramos cells; format: cell-based; conditions: Homo sapiens; cytotoxicity in Ramos cells; read-out: Ramos Cell EC50
Method: as §1, §2, §3

Cytochrome P450 2D6 = Cytochrome P450 2D6 (Homo sapiens (Human), UniProt P10635); assay: Inhibition of Cytochrome P450 2D6 in human liver microsomes; format: in vitro ADME; conditions: 30 minutes incubation with test compound, substrate dextromethorphan 10 μM, read-out: CYP2D6 IC50
Chain of Cytochrome P450 2D6 (P10635 whole entry): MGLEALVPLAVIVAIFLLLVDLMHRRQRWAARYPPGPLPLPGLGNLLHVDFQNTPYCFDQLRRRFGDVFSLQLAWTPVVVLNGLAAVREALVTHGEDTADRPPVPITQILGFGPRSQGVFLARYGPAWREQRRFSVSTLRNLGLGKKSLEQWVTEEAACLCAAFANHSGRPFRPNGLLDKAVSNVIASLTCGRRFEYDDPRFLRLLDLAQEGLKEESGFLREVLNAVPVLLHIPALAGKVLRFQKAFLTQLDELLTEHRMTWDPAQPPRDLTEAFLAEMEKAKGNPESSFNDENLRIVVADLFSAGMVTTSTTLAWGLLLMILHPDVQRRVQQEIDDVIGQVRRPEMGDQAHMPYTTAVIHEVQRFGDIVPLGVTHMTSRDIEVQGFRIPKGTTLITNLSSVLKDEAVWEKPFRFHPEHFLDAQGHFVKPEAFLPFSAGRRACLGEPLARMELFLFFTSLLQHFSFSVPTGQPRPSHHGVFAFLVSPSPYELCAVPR
Method: Master solutions were prepared containing human liver microsomes (Gibco, 0.2 mg/mL) and MgCl2 (5 mM) in potassium phosphate buffer (10 mM). To aliquots (169 μL) of the microsome solution was added test compound in acetonitrile (1 μL) and DMSO (1 μL) to provide final test compound concentrations of 0, 0.005, 0.05, 0.25, 1, 5, 10, and 25 μM.
NADPH (10 mM) in ultra-pure water (20 μL) was added, and this mixture was incubated at 37° C. for 30 minutes. The enzyme reaction then was initiated by the addition of enzyme substrate (dextromethorphan) dissolved in 1 μL of acetonitrile and 9 μL of ultra-pure water. The final substrate concentration was 10 μM.
After 20 minutes, the incubation mixture was diluted with 3 volumes of cold methanol containing imipramine (200 nM), labetalol (200 nM), and ketoprofen (2 μM) as internal standards. Samples were centrifuged at 16,000 g for 10 minutes, then an aliquot of the supernatant (200 μL) was removed and analyzed by LC/MS/MS.
LC/MS/MS analyses were performed in duplicate using a Shimadzu HPLC and an API 4000 mass spectrometer. Liquid chromatography employed a Phenomenex C18, 5 μm, 50×2 mm column fitted with a guard column. Solvent A was acetonitrile containing 0.1% v/v formic acid. Solvent B was water containing 0.1% v/v formic acid. […]
The formation of metabolites was evaluated by peak area, and data were analyzed using Prism 5.0 software (GraphPad). […]

Structure (SMILES): O=C(/N=C(/Nc1cc(F)cc(Cl)c1)Nc1cc(C(F)(F)F)[nH]n1)c1cccc(Cl)c1 [Compound 1, 3-chloro-N-(((3-chloro-5-fluorophenyl)amino)((5-(trifluoromethyl)-1H-pyrazol-3-yl)amino)methylene)benzamide]
- EC50 [1]: 59 ± 6 nM
- EC50 (Ramos cells): 50 nM
- IC50 (Cytochrome P450 2D6): 3200 nM

Structure (SMILES): O=C(/N=C(/Nc1cccc(Cl)c1)Nc1cc(C(F)(F)F)[nH]n1)c1cccc(Cl)c1 [Compound 2, 3-chloro-N-(((3-chlorophenyl)amino)((5-(trifluoromethyl)-1H-pyrazol-3-yl)amino)methylene)benzamide, reference compound]
- EC50 (Ramos cells): 100 nM
- IC50 (Cytochrome P450 2D6): 1100 nM

Structure (SMILES): O=C(/N=C(/Nc1cc(F)cc(Cl)c1)Nc1cc(C(F)F)[nH]n1)c1ccc(Cl)cc1 [Compound 3]
- EC50 (Ramos cells): 1840 nM

Structure (SMILES): O=C(/N=C(/Nc1cc(F)cc(Cl)c1)Nc1cc(C(F)(F)F)[nH]n1)c1ccc(Cl)cc1 [Compound 4]
- EC50 (Ramos cells): 120 nM

Source: patent publication US9266839B2, “Trifluoromethyl pyrazolyl guanidine F1F0-ATPase inhibitors and therapeutic uses thereof” (Lycera Corporation, priority 2013, dated 2016)
